Data set [1] concerns E. coli ATCC25922. The method, then: The MIC values of peptides against E. coli ATCC25922 were determined by the microtiter broth dilution method. The bacteria were grown to the mid-logarithmic phase and diluted into the Luria-Bertani (LB) broth at 1 × 10^5 CFU/mL. […] Polymyxin and the sterile aqua distillate were tested as control. All assays were performed in triplicate.

Another data set deals with pepsin and trypsin. As to the kind of experiment: Protease stability, pepsin and trypsin stated together. The procedure: The untreated peptides and buffer solution were used as control. […] All assays were carried out in triplicate.
For data set [2], the system named is healthy mouse red blood cells. To be noted: cited from earlier work; for hemolysis rate: reported in previous research, ref Zhou et al., 2021. From the text: Escherichia coli (E. coli) infection and LPS-induced inflammation are still of severe threat to human health. With the increasing problem of antibiotic resistance, there is a desperate need to develop new approaches to solve the problem.

Data set [3] deals with murine RAW264.7 macrophage cells. The method, then:
The performance of the Cell Counting Kit-8 (CCK-8) assay was applied to investigate the effect of peptides on the viability of murine RAW264.7 macrophage cells and Vero cells in accordance with the previous method ([Zhou et al., 2021]). Cells (2.5 × 10^4 cells/well) were added into 96-well plates and incubated at 37°C in a humidified 5% CO2 environment for 24 h. Then various concentrations (0.15–20 μg/mL) of peptides were mixed with cells. Sterile aqua distillate was used as control. Eventually, 10 μL WST-8 solutions were added into each well. After 4 h of incubation at 37°C, a microplate reader was applied to measure the absorbance of each sample at 460 nm. The following formula was used to calculate cell viability: Cell viability (%) = OD 460 nm of treated sample/OD 460 nm of control × 100%.

The subject of data set [4] is RAW264.7 cells and Vero cells. Put plainly: Cytotoxicity, CCK-8 assay, RAW264.7 and Vero stated together. The following applies: 128 μg/mL; range over Figures 1D,E (RAW264.7 and Vero). The procedure: Cells (2.5 × 10^4 cells/well) were added into 96-well plates and incubated at 37°C in a humidified 5% CO2 environment for 24 h. […] Sterile aqua distillate was used as control. Eventually, 10 μL WST-8 solutions were added into each well. After 4 h of incubation at 37°C, a microplate reader was applied to measure the absorbance of each sample at 460 nm. The following formula was used to calculate cell viability: Cell viability (%) = OD 460 nm of treated sample/OD 460 nm of control × 100%.
(Formazan colour is commonly taken as a measure of viable cells.)

Data set [5] has as its system healthy mouse red blood cells. Put plainly: Hemolysis. The following applies: mouse red blood cells 8% v/v, PBS pH 7.4, 37°C, 1 h, OD540, three replicates. The procedure:
Hemolytic activity was estimated by determining hemoglobin released from healthy mouse red blood cells. Blood cells were washed three times in sterile PBS (10 mM, pH 7.4) and centrifuged at 1500 rpm for 5 min at 4°C. […] Afterward, the mixtures were incubated at 37°C for 1 h and centrifuged at 1500 rpm for 5 min. Ultimately, the absorbance of supernatants was measured at 540 nm. PBS and 0.1% Triton X-100 were used as the negative and the positive control, respectively. Hemolysis (%) = [(OD540 nm of the treated sample-OD540 nm of the negative control)/ (OD540 nm of positive control-OD540 nm of negative control)] × 100%.

A further data set concerns the target pepsin (Sus scrofa, UniProt P00791). As to the kind of experiment: Protease stability (MIC after incubation with pepsin). The data set is classed as in vitro ADME. To be noted: pepsin 3,000 U/mg, pH 2.0, 4 h, 37°C; peptide:protease 10:1 w/w (320 and 32 μg/mL); read-out MIC; triplicate. The procedure: All assays were carried out in triplicate.
The subject of data set [6] is murine RAW264.7 macrophage cells. The following applies: 128 μg/mL; cell line not given; ref Zhou et al., 2021; cited from earlier work. The procedure: The toxicity of peptides to mouse eukaryotic cells, macrophagocyte RAW 264.7 and Vero cells was determined.
The conditions of data set [7]: ref Zhou et al., 2021; cited from earlier work. From the text:
As essential components of innate immunity, antimicrobial peptides (AMPs) contribute to the first line of defense against infections. […] However, its ant ...

In data set [8] the test system is E. coli ATCC25922. As to the kind of experiment: Development of resistance by serial passaging (MIC assay). The data set is classed as cell-based, Escherichia coli. The following applies: 11 serial passages of E. coli ATCC25922, inoculum from 1/4 MIC well, 11 days. The method, then: The development of resistance against E. coli ATCC25922 of these peptides was performed by MIC assay. Mid-log phase of bacteria (1 × 10^5 CFU/mL) (90 μL/well) was added to 10 μL peptides solution (128, 64, 32, 16, 8, 4, 2, 1, 0.5, 0.25 μg/mL). Polymyxin were used as control. After incubation at 37°C for 16–18 h, bacteria form 1/4 MIC well were used to inoculate in fresh culture. The MIC values were continually determined as described above. The serial passaging was repeated for 11 days.

We go through five compounds from paper PMC9751974 (Frontiers in Microbiology, 2022).

Converted amounts (≈) assume the structure as drawn. Where two headings read alike, the source gives them in different places. Where a SMILES comes first, the peptide text is derived from it. [ ]: non-standard residue; d: D form.

pepsin, sequence (P00791 60-385): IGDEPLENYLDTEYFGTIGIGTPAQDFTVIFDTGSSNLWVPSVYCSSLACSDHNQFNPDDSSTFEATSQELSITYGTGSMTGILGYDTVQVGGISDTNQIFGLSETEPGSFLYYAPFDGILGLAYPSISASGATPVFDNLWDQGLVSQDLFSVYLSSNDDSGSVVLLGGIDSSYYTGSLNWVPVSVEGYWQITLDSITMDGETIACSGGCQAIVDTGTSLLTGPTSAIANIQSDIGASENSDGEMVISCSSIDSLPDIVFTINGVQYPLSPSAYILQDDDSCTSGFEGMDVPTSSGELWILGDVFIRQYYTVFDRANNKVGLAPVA

The term MIC denotes the smallest concentration in the dilution series that meets the test's criterion for growth inhibition. A higher MIC goes with a need for much substance. In the data set on E. coli ATCC25922 [1] (ATCC25922), `CC(C)C[C@H](NC(=O)[C@H](CCCNC(=N)N)NC(=O)[C@@H](N)C(C)C)C(=O)N[C@@H](CCCNC(=N)N)C(=O)N[C@@H](Cc1c[nH]c2ccccc12)C(=O)N[C@@H](Cc1c[nH]c2ccccc12)C(=O)N[C@@H](CCCNC(=N)N)C(=O)N[C@@H](CCCNC(=N)N)C(=O)N[C@@H](CCCNC(=N)N)C(=O)N[C@@H](Cc1c[nH]c2ccccc12)C(=O)N[C@@H](CCCNC(=N)N)C(=O)N[C@@H](CCCNC(=N)N)C(N)=O` [1018M] (H-VRLRWWRRRWRR-NH2) registered an MIC of 8 µg/mL (≈ 4.25 µM). Moreover, the “decline of anti-E. coli ability after exposure to pepsin and trypsin” value (from here on “decline of anti-E. coli ability”) with pepsin and trypsin was 4 times. The hemolysis in data set [2] is on record as 0%.
For `CC(C)C[C@@H](NC(=O)[C@@H](CCCNC(=N)N)NC(=O)[C@H](N)C(C)C)C(=O)N[C@H](CCCNC(=N)N)C(=O)N[C@H](Cc1c[nH]c2ccccc12)C(=O)N[C@H](Cc1c[nH]c2ccccc12)C(=O)N[C@H](CCCNC(=N)N)C(=O)N[C@H](CCCNC(=N)N)C(=O)N[C@H](CCCNC(=N)N)C(=O)N[C@H](Cc1c[nH]c2ccccc12)C(=O)N[C@H](CCCNC(=N)N)C(=O)N[C@H](CCCNC(=N)N)C(N)=O` [D1018M] (H-[dV][dR][dL][dR][dW][dW][dR][dR][dR][dW][dR][dR]-NH2), the MIC against E. coli ATCC25922 [1] (ATCC25922) amounted to 4 µg/mL (≈ 2.13 µM). For the same compound, in the data set with pepsin and trypsin, the “decline of anti-E. coli ability” value is listed as 4 times; the “increase of resistance against tested proteases” value is 2–4 times. The “safe concentration of murine macrophage cells” value in data set [3] is 4 times of MIC.
In the case of `CC[C@@H](C)[C@@H](NC(=O)[C@@H](CCCNC(=N)N)NC(=O)[C@H](NC(=O)[C@@H](C)NC(=O)[C@H](NC(=O)[C@H](NC(=O)[C@@H](CC(C)C)NC(=O)[C@@H](CCCNC(=N)N)NC(=O)[C@H](N)C(C)C)[C@H](C)CC)C(C)C)C(C)C)C(=O)N[C@H](Cc1c[nH]c2ccccc12)C(=O)N[C@H](CCCNC(=N)N)C(=O)N[C@H](CCCNC(=N)N)C(N)=O` [D1018] (H-[dV][dR][dL][dI][dV][dA][dV][dR][dI][dW][dR][dR]-NH2), the “increase of resistance against tested proteases” value in the data set with pepsin and trypsin (abstract, D-peptides compared with L-parents) is 2–4 times. The survival rate in data set [4] is listed as 81.7–87.6%. For the same compound, the hemolysis rate in [5] (32 μg/mL) came to 0.542%; in [5] (64 μg/mL), 1.724%; in [5] (128 μg/mL), 2.316%. Further, the “MIC against E. coli ATCC25922 after exposure to pepsin” value on pepsin came out at 4 µg/mL (≈ 2.6 µM).
Regarding `CC[C@H](C)[C@H](NC(=O)[C@H](CCCNC(=N)N)NC(=O)[C@@H](NC(=O)[C@H](C)NC(=O)[C@@H](NC(=O)[C@@H](NC(=O)[C@H](CC(C)C)NC(=O)[C@H](CCCNC(=N)N)NC(=O)[C@@H](N)C(C)C)[C@@H](C)CC)C(C)C)C(C)C)C(=O)N[C@@H](Cc1c[nH]c2ccccc12)C(=O)N[C@@H](CCCNC(=N)N)C(=O)N[C@@H](CCCNC(=N)N)C(N)=O` [IDR-1018] (H-VRLIVAVRIWRR-NH2), in data set [6], the survival rate is 95.9%. The “decrease of activity on exposure to inappropriate temperature, pH, or protease environment” value in data set [7] is recorded as 2–16 times. Further, in the data set with pepsin and trypsin (4 h, 37°C, pepsin pH 2.0 and trypsin pH 8.0, 10:1 w/w, read-out MIC vs untreated peptide), the “decline of anti-E. coli ability” value is 2–4 times. Also, the hemolysis rate in data set [2] (32 μg/mL) is listed as 0.386%; in [2] (64 μg/mL) it was 2.136%; in data set [2] (128 μg/mL), 2.651%.
As to Polymyxin [reference compound], the MIC in the data set with E. coli ATCC25922 [1] (E. coli ATCC25922, LB broth, 1 × 10^5 CFU/mL, 37°C, 16–24 h, triplicate) was found to be 1.56 µg/mL. Besides, the “change of MIC after serial passages” value in the data set on E. coli ATCC25922 [8] was “no change in MIC”.
